Test results: the supplement of paper PMC5908809

Legend:
[1] = test system: normal NK cells expanded with K562-aAPC; test: percent inhibition of viability; higher = more inhibition; conditions: 72 h, IL-2 2.5 ng/mL
Protocol: (§1)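 Drug sensitivity and resistance testing on K562-aAPC-expanded normal NK cells: 5 concentrations (10-fold steps over a 10,000-fold range), 72 h at 37 °C, viability by CellTiter-Glo normalised to DMSO and benzethonium chloride controls; DSS from the fitted curve.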

DERL-7 (IL-2 2.5 ng/mL) [2] = test: as above; conditions: 72 h
IMC-1 (IL-2 20 ng/mL) [3] = test: as above; conditions: 72 h
KAI3 (IL-2 2.5 ng/mL) [4] = test: as above; conditions: 72 h
KHYG-1 (IL-2 2.5 ng/mL) [5] = test: as above; conditions: 72 h
NK-92 (IL-2 2.5 ng/mL) [6] = test: as above; conditions: 72 h
NK-YS (IL-2 2.5 ng/mL) [7] = test: as above; conditions: 72 h
NKL (IL-2 2.5 ng/mL) [8] = test: as above; conditions: 72 h
SNK-6 (IL-2 2.5 ng/mL) [9] = test: as above; conditions: 72 h
YT (IL-2 2.5 ng/mL) [10] = test: as above; conditions: 72 h
[11] = test system: normal primary NK cells, pool 1 (3 donors) (IL-2 2.5 ng/mL); test: as above; conditions: 72 h
[12] = test system: normal primary NK cells, pool 1 (3 donors), resting (IL-2 0 ng/mL); test: as above; conditions: 72 h
[13] = test system: normal primary NK cells, pool 2 (3 donors) (IL-2 2.5 ng/mL); test: as above; conditions: 72 h
[14] = test system: normal primary NK cells, pool 3 (3 donors) (IL-2 2.5 ng/mL); test: as above; conditions: 72 h
[15] = test system: normal NK cells expanded with K562-aAPC; test: drug sensitivity score (DSS) (DSS units); higher = more sensitive; extreme values may be limits of the assay; conditions: 72 h; IL-2 2.5 ng/mL
Protocol: as §1

DERL-7 (IL-2 2.5 ng/mL) [16] = test: as above; conditions: 72 h
IMC-1 (IL-2 20 ng/mL) [17] = test: as above; conditions: 72 h
KAI3 (IL-2 2.5 ng/mL) [18] = test: as above; conditions: 72 h
KHYG-1 (IL-2 2.5 ng/mL) [19] = test: as above; conditions: 72 h
NK-92 (IL-2 2.5 ng/mL) [20] = test: as above; conditions: 72 h
NK-YS (IL-2 2.5 ng/mL) [21] = test: as above; conditions: 72 h
NKL (IL-2 2.5 ng/mL) [22] = test: as above; conditions: 72 h
SNK-6 (IL-2 2.5 ng/mL) [23] = test: as above; conditions: 72 h
YT (IL-2 2.5 ng/mL) [24] = test: as above; conditions: 72 h
[25] = test system: normal primary NK cells, pool 1 (3 donors) (IL-2 2.5 ng/mL); test: as above; conditions: 72 h
[26] = test system: normal primary NK cells, pool 1 (3 donors), resting (IL-2 0 ng/mL); test: as above; conditions: 72 h
[27] = test system: normal primary NK cells, pool 2 (3 donors) (IL-2 2.5 ng/mL); test: as above; conditions: 72 h
[28] = test system: normal primary NK cells, pool 3 (3 donors) (IL-2 2.5 ng/mL); test: as above; conditions: 72 h

Cc1cnc(NC(=O)Nc2cc(Br)c(C)cc2OC[C@@H]2CNCCO2)cn1 [Rabusertib] (max concentration tested 1000 nM)
percent inhibition of viability ([1]; 0.1 nM): 4.2% | percent inhibition of viability ([1]; 1 nM): -1.61% | percent inhibition of viability ([1]; 10 nM): 0.16% | percent inhibition of viability ([1]; 100 nM): 13.5% | percent inhibition of viability ([1]; 1000 nM): 55.7% | percent inhibition of viability (DERL-7 (IL-2 2.5 ng/mL) [2]; 0.1 nM): 5.67% | percent inhibition of viability (DERL-7 (IL-2 2.5 ng/mL) [2]; 1 nM): 5.69% | percent inhibition of viability (DERL-7 (IL-2 2.5 ng/mL) [2]; 10 nM): 4.81% | percent inhibition of viability (DERL-7 (IL-2 2.5 ng/mL) [2]; 100 nM): 4.56% | percent inhibition of viability (DERL-7 (IL-2 2.5 ng/mL) [2]; 1000 nM): 33.5% | percent inhibition of viability (IMC-1 (IL-2 20 ng/mL) [3]; 0.1 nM): -3.74% | percent inhibition of viability (IMC-1 (IL-2 20 ng/mL) [3]; 1 nM): -1.84% | percent inhibition of viability (IMC-1 (IL-2 20 ng/mL) [3]; 10 nM): 2.04% | percent inhibition of viability (IMC-1 (IL-2 20 ng/mL) [3]; 100 nM): 1.67% | percent inhibition of viability (IMC-1 (IL-2 20 ng/mL) [3]; 1000 nM): 9.87% | percent inhibition of viability (KAI3 (IL-2 2.5 ng/mL) [4]; 0.1 nM): -0.28% | percent inhibition of viability (KAI3 (IL-2 2.5 ng/mL) [4]; 1 nM): -3.83% | percent inhibition of viability (KAI3 (IL-2 2.5 ng/mL) [4]; 10 nM): 3.9% | percent inhibition of viability (KAI3 (IL-2 2.5 ng/mL) [4]; 100 nM): 11.6% | percent inhibition of viability (KAI3 (IL-2 2.5 ng/mL) [4]; 1000 nM): 81% | percent inhibition of viability (KHYG-1 (IL-2 2.5 ng/mL) [5]; 0.1 nM): 3.66% | percent inhibition of viability (KHYG-1 (IL-2 2.5 ng/mL) [5]; 1 nM): 7.68% | percent inhibition of viability (KHYG-1 (IL-2 2.5 ng/mL) [5]; 10 nM): 5.93% | percent inhibition of viability (KHYG-1 (IL-2 2.5 ng/mL) [5]; 100 nM): 14.9% | percent inhibition of viability (KHYG-1 (IL-2 2.5 ng/mL) [5]; 1000 nM): 103% | percent inhibition of viability (NK-92 (IL-2 2.5 ng/mL) [6]; 0.1 nM): -4.77% | percent inhibition of viability (NK-92 (IL-2 2.5 ng/mL) [6]; 1 nM): 4.85% | percent inhibition of viability (NK-92 (IL-2 2.5 ng/mL) [6]; 10 nM): 16% | percent inhibition of viability (NK-92 (IL-2 2.5 ng/mL) [6]; 100 nM): 18.2% | percent inhibition of viability (NK-92 (IL-2 2.5 ng/mL) [6]; 1000 nM): 86.9% | percent inhibition of viability (NK-YS (IL-2 2.5 ng/mL) [7]; 0.1 nM): 1.16% | percent inhibition of viability (NK-YS (IL-2 2.5 ng/mL) [7]; 1 nM): 1.34% | percent inhibition of viability (NK-YS (IL-2 2.5 ng/mL) [7]; 10 nM): 0.68% | percent inhibition of viability (NK-YS (IL-2 2.5 ng/mL) [7]; 100 nM): 3.22% | percent inhibition of viability (NK-YS (IL-2 2.5 ng/mL) [7]; 1000 nM): 65.2% | percent inhibition of viability (NKL (IL-2 2.5 ng/mL) [8]; 0.1 nM): -16.6% | percent inhibition of viability (NKL (IL-2 2.5 ng/mL) [8]; 1 nM): 0.3% | percent inhibition of viability (NKL (IL-2 2.5 ng/mL) [8]; 10 nM): -1.09% | percent inhibition of viability (NKL (IL-2 2.5 ng/mL) [8]; 100 nM): 14% | percent inhibition of viability (NKL (IL-2 2.5 ng/mL) [8]; 1000 nM): 86.2% | percent inhibition of viability (SNK-6 (IL-2 2.5 ng/mL) [9]; 0.1 nM): 11.6% | percent inhibition of viability (SNK-6 (IL-2 2.5 ng/mL) [9]; 1 nM): 6.32% | percent inhibition of viability (SNK-6 (IL-2 2.5 ng/mL) [9]; 10 nM): 2.12% | percent inhibition of viability (SNK-6 (IL-2 2.5 ng/mL) [9]; 100 nM): 11.8% | percent inhibition of viability (SNK-6 (IL-2 2.5 ng/mL) [9]; 1000 nM): 62.8% | percent inhibition of viability (YT (IL-2 2.5 ng/mL) [10]; 0.1 nM): -0.82% | percent inhibition of viability (YT (IL-2 2.5 ng/mL) [10]; 1 nM): -0.63% | percent inhibition of viability (YT (IL-2 2.5 ng/mL) [10]; 10 nM): 1.16% | percent inhibition of viability (YT (IL-2 2.5 ng/mL) [10]; 100 nM): -2% | percent inhibition of viability (YT (IL-2 2.5 ng/mL) [10]; 1000 nM): 11% | percent inhibition of viability ([11]; 0.1 nM): -1.58% | percent inhibition of viability ([11]; 1 nM): -1.28% | percent inhibition of viability ([11]; 10 nM): -6.24% | percent inhibition of viability ([11]; 100 nM): -18% | percent inhibition of viability ([11]; 1000 nM): -4.02% | percent inhibition of viability ([12]; 0.1 nM): 5.84% | percent inhibition of viability ([12]; 1 nM): -6.29% | percent inhibition of viability ([12]; 10 nM): 4.9% | percent inhibition of viability ([12]; 100 nM): -19.1% | percent inhibition of viability ([12]; 1000 nM): -1.65% | percent inhibition of viability ([13]; 0.1 nM): -8.45% | percent inhibition of viability ([13]; 1 nM): 5.23% | percent inhibition of viability ([13]; 10 nM): 3.94% | percent inhibition of viability ([13]; 100 nM): 0.79% | percent inhibition of viability ([13]; 1000 nM): 15.8% | percent inhibition of viability ([14]; 0.1 nM): -20.8% | percent inhibition of viability ([14]; 1 nM): -8.02% | percent inhibition of viability ([14]; 10 nM): 3.37% | percent inhibition of viability ([14]; 100 nM): -3.4% | percent inhibition of viability ([14]; 1000 nM): 8.17% | drug sensitivity score [15]: 5.12 | drug sensitivity score (DERL-7 (IL-2 2.5 ng/mL) [16]): 2.31 | drug sensitivity score (IMC-1 (IL-2 20 ng/mL) [17]): 0 | drug sensitivity score (KAI3 (IL-2 2.5 ng/mL) [18]): 6.43 | drug sensitivity score (KHYG-1 (IL-2 2.5 ng/mL) [19]): 8.07 | drug sensitivity score (NK-92 (IL-2 2.5 ng/mL) [20]): 7.67 | drug sensitivity score (NK-YS (IL-2 2.5 ng/mL) [21]): 4.02 | drug sensitivity score (NKL (IL-2 2.5 ng/mL) [22]): 7.11 | drug sensitivity score (SNK-6 (IL-2 2.5 ng/mL) [23]): 5.37 | drug sensitivity score (YT (IL-2 2.5 ng/mL) [24]): 0 | drug sensitivity score [25]: 0 | drug sensitivity score [26]: 0 | drug sensitivity score [27]: 0.35 | drug sensitivity score [28]: 0
